We go through seven compounds from publication PMC4739778 (Experimental hematology, 2011).

For one data set, the target named is T1, human OCTN2 (Homo sapiens, UniProt O76082).
T1 sequence (O76082 1-557): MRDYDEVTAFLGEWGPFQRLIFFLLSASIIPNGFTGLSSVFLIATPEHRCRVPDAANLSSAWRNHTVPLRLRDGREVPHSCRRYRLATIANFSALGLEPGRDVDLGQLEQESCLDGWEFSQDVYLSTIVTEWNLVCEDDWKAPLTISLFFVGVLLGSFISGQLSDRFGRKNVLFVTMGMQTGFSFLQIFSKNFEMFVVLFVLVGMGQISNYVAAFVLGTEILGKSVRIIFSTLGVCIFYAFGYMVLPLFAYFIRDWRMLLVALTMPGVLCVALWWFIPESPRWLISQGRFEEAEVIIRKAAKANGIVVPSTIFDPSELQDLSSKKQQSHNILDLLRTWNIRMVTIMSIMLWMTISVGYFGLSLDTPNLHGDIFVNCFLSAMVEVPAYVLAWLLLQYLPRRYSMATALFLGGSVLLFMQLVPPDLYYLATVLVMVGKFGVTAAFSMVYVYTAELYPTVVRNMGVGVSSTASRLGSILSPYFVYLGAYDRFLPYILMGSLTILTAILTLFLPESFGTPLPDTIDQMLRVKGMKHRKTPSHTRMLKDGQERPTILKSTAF
Description: Hydroxyurea uptake in HEK293 cells overexpressing hOCTN2. The class given is cell-based. The settings on record: percentage of control cells (100%).

A further data set deals with T2, human OCTN1 (Homo sapiens, UniProt Q9H015).
T2 sequence (Q9H015 1-551): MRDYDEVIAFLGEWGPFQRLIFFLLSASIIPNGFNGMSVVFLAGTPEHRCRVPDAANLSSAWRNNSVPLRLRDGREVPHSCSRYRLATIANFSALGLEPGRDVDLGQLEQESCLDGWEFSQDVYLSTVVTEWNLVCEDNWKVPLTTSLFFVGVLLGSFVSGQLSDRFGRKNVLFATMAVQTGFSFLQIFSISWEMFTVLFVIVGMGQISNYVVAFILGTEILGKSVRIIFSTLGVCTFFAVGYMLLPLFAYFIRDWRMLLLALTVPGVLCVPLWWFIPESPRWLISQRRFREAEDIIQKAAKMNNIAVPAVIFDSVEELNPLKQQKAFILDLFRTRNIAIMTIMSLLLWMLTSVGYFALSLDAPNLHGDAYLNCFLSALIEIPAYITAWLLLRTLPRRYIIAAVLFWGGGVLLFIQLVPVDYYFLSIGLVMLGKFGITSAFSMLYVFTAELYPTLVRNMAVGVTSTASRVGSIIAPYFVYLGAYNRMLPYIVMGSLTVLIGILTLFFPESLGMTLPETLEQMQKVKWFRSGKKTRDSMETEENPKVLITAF
Nature of the data set: Hydroxyurea uptake in HEK293 cells overexpressing hOCTN1. The class given is cell-based. The following applies: percentage of control cells (100%).

The conditions of data set [1]: PAMPA. Background: In PAMPA a lipid-coated filter parts donor from acceptor wells.
The conditions of data set [2]: humans, oral; cited from earlier work.
The next data set has as its target T3, hOATP1B3 (Homo sapiens, UniProt Q9NPD5).
T3 sequence (Q9NPD5 1-702): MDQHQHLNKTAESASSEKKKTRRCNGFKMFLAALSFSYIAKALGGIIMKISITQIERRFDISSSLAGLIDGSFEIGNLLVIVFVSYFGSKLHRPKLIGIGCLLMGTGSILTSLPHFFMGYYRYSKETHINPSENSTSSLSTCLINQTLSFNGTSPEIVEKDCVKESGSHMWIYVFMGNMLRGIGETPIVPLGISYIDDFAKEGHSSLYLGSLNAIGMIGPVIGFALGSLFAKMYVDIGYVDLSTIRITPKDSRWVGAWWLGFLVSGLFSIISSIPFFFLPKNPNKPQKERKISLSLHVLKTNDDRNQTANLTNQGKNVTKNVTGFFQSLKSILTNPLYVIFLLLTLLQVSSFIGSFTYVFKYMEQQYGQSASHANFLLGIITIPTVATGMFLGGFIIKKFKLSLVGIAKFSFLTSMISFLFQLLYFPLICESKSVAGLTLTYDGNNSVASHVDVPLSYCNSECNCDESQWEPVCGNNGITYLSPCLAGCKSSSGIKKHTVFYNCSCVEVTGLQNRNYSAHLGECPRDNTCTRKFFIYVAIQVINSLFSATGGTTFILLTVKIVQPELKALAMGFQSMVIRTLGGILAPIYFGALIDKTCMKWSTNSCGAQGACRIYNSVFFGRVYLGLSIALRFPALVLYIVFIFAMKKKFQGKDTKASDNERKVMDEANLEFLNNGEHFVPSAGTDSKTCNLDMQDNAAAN
Description: Inhibition of OATP1B3-mediated hydroxyurea accumulation in oocytes. The data set is classed as cell-based. The settings on record: for Hydroxyurea accumulation in OATP1B3 oocytes, % of accumulation without inhibitor: 1mM inhibitor co-incubation, in 1% DMSO.

The target in another data set is T4, UTB (Homo sapiens, UniProt Q13336).
T4 sequence (Q13336 1-389): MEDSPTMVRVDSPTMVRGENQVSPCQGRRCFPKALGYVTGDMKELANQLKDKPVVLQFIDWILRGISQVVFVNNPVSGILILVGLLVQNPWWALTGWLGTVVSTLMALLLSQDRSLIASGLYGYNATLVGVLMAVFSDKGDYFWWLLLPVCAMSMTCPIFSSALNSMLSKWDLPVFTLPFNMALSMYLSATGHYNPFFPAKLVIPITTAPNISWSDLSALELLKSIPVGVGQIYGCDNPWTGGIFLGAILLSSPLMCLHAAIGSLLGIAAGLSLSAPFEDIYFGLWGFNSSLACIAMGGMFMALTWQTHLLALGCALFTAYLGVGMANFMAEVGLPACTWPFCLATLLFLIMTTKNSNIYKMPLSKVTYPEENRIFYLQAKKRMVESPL
Description: Transcellular transport assay in LLC-PK1 cells overexpressing UTB. The following applies: 1mM dimethylurea. The class given is cell-based.

A short description of data set [3]: Parallel artificial membrane permeability assay. The settings on record: 4% lipid bilayer; 16-hours incubation at room temperature.

Read-outs that look alike come from different tables or passages of the source.

The Tmax is the time from dosing to the highest level. As to `NC(=O)NO` [hydroxyurea], the “hydroxyurea uptake compared to controls” value on human OCTN2 came to 113%. The “hydroxyurea uptake compared to controls” value at human OCTN1 is reported as 130%. In data set [1], the “10 + logPe” value was 2.597 and the “estimated permeability rate (log Pe + 10)” value is on record as 2.385. In data set [2], the Tmax is 1.22 h and the bioavailability entry was “nearly complete”.
In the case of `CO[C@H]1/C=C/O[C@@]2(C)Oc3c(C)c(O)c4c(O)c(c(/C=N/N5CCN(C)CC5)c(O)c4c3C2=O)NC(=O)/C(C)=C\C=C\[C@H](C)[C@H](O)[C@@H](C)[C@@H](O)[C@@H](C)[C@H](OC(C)=O)[C@@H]1C` [rifampin], on hOATP1B3, the “Hydroxyurea accumulation in OATP1B3 oocytes, % of accumulation without inhibitor” value worked out at 30%.
Take dimethylurea: the “effect on hydroxyurea transport” value on UTB is “marginally inhibited”.
Turning to `CN(Cc1cnc2nc(N)nc(N)c2n1)c1ccc(C(=O)N[C@@H](CCC(=O)O)C(=O)O)cc1` [methotrexate], in data set [1] (16 h), the “10 + logPe” value turned out to be 2.022. For the same compound, at hOATP1B3 (1mM co-incubation in the absence of DMSO), the “lowering of hydroxyurea accumulation in OATP1B3 oocytes” value was found to be 50%.
For the compound `NC(N)=O` [urea], in data set [1], the “10 + logPe” value is recorded as 2.712 and the “estimated permeability rate (log Pe + 10)” value is 2.335.
`C[C@@H]1O[C@@H](O[C@H]2[C@H](Oc3cc(O)c4c(c3)O[C@H](c3ccc(O)cc3)CC4=O)O[C@H](CO)[C@@H](O)[C@@H]2O)[C@H](O)[C@H](O)[C@H]1O` [naringin]: the “Hydroxyurea accumulation in OATP1B3 oocytes, % of accumulation without inhibitor” value on hOATP1B3 is 30%.
`Cc1ncc2n1-c1ccc(Cl)cc1C(c1ccccc1F)=NC2` [midazolam]: the “10 + logPe” value in data set [3] is on record as 4.707.
